Assay results published in PMC5218480 (PLoS ONE, 2017).

System: MV-4-11 cells
Experiment: Gene expression microarray analysis (Affymetrix PrimeView) and GSEA
Type: cell-based, human
Conditions: gene VPS36; ACY-1035 1 mM; LIST F

Nc1ccc(-c2cccs2)cc1NC(=O)c1ccc2c(c1)cc(C1CC1)n2CCN1CCOCC1 [ACY-1035]
RFU, VPS36 (ProbeSet 11739960_a_at): 54.57 RFU
